Test: xn = mol fraction of the nth substance listed

Cc1cnccn1 [2-methylpyrazine] + O=C=O
Fluid (supercritical or subcritical phases), Linear displacement technique
Details	mass density [kg/m3]
305.05 K, 15480 kPa, x1 = 0.624	942
307.45 K, 8340 kPa, x1 = 0.339	950
307.45 K, 11280 kPa, x1 = 0.339	957
307.45 K, 16170 kPa, x1 = 0.339	965
307.55 K, 2720 kPa, x1 = 0.857	922
307.55 K, 4900 kPa, x1 = 0.857	926
307.55 K, 6860 kPa, x1 = 0.857	928
307.55 K, 11550 kPa, x1 = 0.857	934
309.15 K, 8070 kPa, x1 = 0.122	948
309.15 K, 11140 kPa, x1 = 0.122	972
309.15 K, 14720 kPa, x1 = 0.122	992
309.95 K, 8520 kPa, x1 = 0.017	652
309.95 K, 10170 kPa, x1 = 0.017	701
309.95 K, 11590 kPa, x1 = 0.017	724
311.75 K, 8520 kPa, x1 = 0.033	764
311.75 K, 10790 kPa, x1 = 0.033	831
311.75 K, 13310 kPa, x1 = 0.033	871
311.75 K, 15760 kPa, x1 = 0.033	905
315.25 K, 9690 kPa, x1 = 0.039	722
315.25 K, 10690 kPa, x1 = 0.039	749
315.25 K, 12660 kPa, x1 = 0.039	777
315.25 K, 14660 kPa, x1 = 0.039	812
315.45 K, 8620 kPa, x1 = 0.062	781
315.45 K, 11210 kPa, x1 = 0.062	824
315.45 K, 13170 kPa, x1 = 0.062	846
315.45 K, 16310 kPa, x1 = 0.062	879
316.45 K, 6030 kPa, x1 = 0.624	912
316.45 K, 10030 kPa, x1 = 0.624	917
316.45 K, 13210 kPa, x1 = 0.624	920
316.45 K, 17280 kPa, x1 = 0.624	926
317.55 K, 11280 kPa, x1 = 0.091	882
317.55 K, 14550 kPa, x1 = 0.091	913
317.55 K, 16520 kPa, x1 = 0.091	930
317.85 K, 8520 kPa, x1 = 0.156	887
317.85 K, 11140 kPa, x1 = 0.156	898
317.85 K, 12310 kPa, x1 = 0.156	899
317.95 K, 7340 kPa, x1 = 0.264	858
317.95 K, 9000 kPa, x1 = 0.264	863
317.95 K, 11830 kPa, x1 = 0.264	872
317.95 K, 15410 kPa, x1 = 0.264	882
320.75 K, 10340 kPa, x1 = 0.122	910
320.75 K, 11760 kPa, x1 = 0.122	924
320.75 K, 14380 kPa, x1 = 0.122	944
322.95 K, 4760 kPa, x1 = 0.857	905
322.95 K, 8520 kPa, x1 = 0.857	909
322.95 K, 12620 kPa, x1 = 0.857	914
322.95 K, 17030 kPa, x1 = 0.857	918
325.15 K, 7000 kPa, x1 = 0.339	932
325.15 K, 10590 kPa, x1 = 0.339	941
325.15 K, 15280 kPa, x1 = 0.339	952
326.65 K, 11620 kPa, x1 = 0.039	667
326.65 K, 12280 kPa, x1 = 0.039	690
326.65 K, 13620 kPa, x1 = 0.039	725
327.35 K, 10790 kPa, x1 = 0.091	808
327.35 K, 11520 kPa, x1 = 0.091	822
327.35 K, 13340 kPa, x1 = 0.091	848
327.35 K, 15830 kPa, x1 = 0.091	875
328.75 K, 9900 kPa, x1 = 0.156	872
328.75 K, 11000 kPa, x1 = 0.156	878
328.75 K, 13900 kPa, x1 = 0.156	890
329.15 K, 10450 kPa, x1 = 0.017	407
329.15 K, 11930 kPa, x1 = 0.017	574

Liquid, linear displacement
Details	mass density [kg/m3]
305.05 K, x1 = 0.624	919
307.45 K, x1 = 0.339	937
307.55 K, x1 = 0.857	916
309.15 K, x1 = 0.122	934
309.95 K, x1 = 0.017	621
311.75 K, x1 = 0.033	747
315.25 K, x1 = 0.039	682
315.45 K, x1 = 0.062	766
316.45 K, x1 = 0.624	907
317.55 K, x1 = 0.091	841
317.85 K, x1 = 0.156	885
317.95 K, x1 = 0.264	856
320.75 K, x1 = 0.122	890
322.95 K, x1 = 0.857	900
325.15 K, x1 = 0.339	929
326.65 K, x1 = 0.039	595
327.35 K, x1 = 0.091	794
328.75 K, x1 = 0.156	868
